# Measured values taken from PMC7318222, “A Family of Water‐Immiscible, Dipolar Aprotic, Diamide Solvents from Succinic Acid” (Chemsuschem, 2020).
# Molecular target: T1, AhR (Homo sapiens, UniProt P35869)
# T1 construct: expression construct for the full-length human receptor under investigation; expressed in transfected cells; host or cells: human U2-OS cells (ATCC HTB-96), stably transfected
# T1 sequence (P35869 11-848): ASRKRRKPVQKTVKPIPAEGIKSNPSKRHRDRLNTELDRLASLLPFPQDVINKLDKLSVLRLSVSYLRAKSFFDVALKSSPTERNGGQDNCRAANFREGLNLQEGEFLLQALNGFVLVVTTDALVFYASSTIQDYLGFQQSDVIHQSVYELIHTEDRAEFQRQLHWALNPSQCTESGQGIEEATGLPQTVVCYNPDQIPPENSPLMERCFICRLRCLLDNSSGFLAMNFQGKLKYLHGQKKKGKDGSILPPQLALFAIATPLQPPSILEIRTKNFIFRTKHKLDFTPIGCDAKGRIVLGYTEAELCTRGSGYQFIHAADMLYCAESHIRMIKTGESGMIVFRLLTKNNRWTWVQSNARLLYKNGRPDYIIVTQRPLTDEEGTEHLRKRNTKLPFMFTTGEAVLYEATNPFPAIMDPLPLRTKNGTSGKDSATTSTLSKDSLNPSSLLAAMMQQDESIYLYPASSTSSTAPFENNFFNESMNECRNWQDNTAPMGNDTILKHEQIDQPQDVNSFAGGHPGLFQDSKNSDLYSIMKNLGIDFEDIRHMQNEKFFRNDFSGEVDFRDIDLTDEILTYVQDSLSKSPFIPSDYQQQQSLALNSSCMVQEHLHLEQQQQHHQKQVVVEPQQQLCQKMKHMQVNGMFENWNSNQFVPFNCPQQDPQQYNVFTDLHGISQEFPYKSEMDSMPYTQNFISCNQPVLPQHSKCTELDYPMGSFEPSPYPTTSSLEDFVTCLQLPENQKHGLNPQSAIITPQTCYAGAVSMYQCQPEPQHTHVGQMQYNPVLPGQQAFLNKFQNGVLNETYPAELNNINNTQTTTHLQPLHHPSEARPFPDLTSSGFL
# Assay: AhR CALUX reporter gene assay
# Assay type: cell-based
# Design: key: –: no effect observed up to the highest test concentration
# Details: PC10, 24 h exposure
# Excerpt: 2-methylimidazole 99.0%, zinc(II) nitrate hexahydrate ≥99.0%, para-cymene 99.0%, 1,4-dioxane 99.8% (anhydrous), 4-nitroaniline ≥99.0%, 1-octanol ≥99.0%, diglyme ≥99.0%, DMSO-d6 (99.8% D) and chloroform-d (99.8% D) were purchased from Sigma-Aldrich. Toluene ≥99.0%, hexane ≥99.5%, DCM ≥99.5%, chloroform ≥99.5%, DMSO ≥99.0% were purchased from VWR. N,N-diethyl-4-nitroaniline ≥98.0% was purchased from Alfa Aeser. Cyrene was supplied by Circa group. N-butylpyrrolidinone was supplied by Eastman chemicals. N,N-dimethylformamide 99.9% and N,N-dimethylacetamide 99.9% were purchased from Fischer. The flakes of Ultrason® E3020 P Polyarylethersulfone of 55,000 Da were obtained from INGE.BASF, Germany. The CALUX cell lines have been described previously.[1] They are based on human U2-OS cells (ATCC, HTB-96) stably transfected with an expression construct for the full-length human receptor under investigation, and a reporter construct consisting of multimerized responsive elements for the cognate receptor coupled to a minimal promoter element (TATA) and a luciferase gene. Cells were maintained as described previously,[2] using cell culture media and supplements from Fisher Scientific as described in the experimental procedures section. […]
# In vitro reporter gene assays
# The automated CALUX assays were carried out similarly as described earlier,[12] with some adaptations. In brief, the assay was performed in CO2 independent medium (Fisher Scientific, […]
# supplement (Fisher Scientific, 11574466), 10 U/mL penicillin and 10 µg/mL streptomycin. A cell suspension in assay medium was made of 1 × 10^5cells/mL, and white 384-wells plates were seeded with 30 µl cell suspension/well. After 24 h, exposure medium was prepared. A dilution series in 0.5log unit increments of each test compound (in DMSO) was added to a 96-wells plate containing assay medium (2% v/v). Of this exposure mixture, 30 µl was added to the assay plates containing the CALUX cells, resulting in a final DMSO concentration of 1%. Additionally, DMSO blanks and a full dose response curve of the relevant reference compound were included on each plate. All samples were tested in triplicate. The preparation of the compound dilution series as well as the exposure of the cells were performed on a Hamilton StarLET liquid handling robot coupled to a Cytomat incubator.
# Directly after exposure, plates were sealed with non-breathing plate seals (Plate sealer, easy seal transparent; Greiner-Bio-One, 676001). After 24 h the exposure medium was removed using an EL406 washer-dispenser (BioTek) and 10 µl/well triton lysisbuffer was added by the EL406.
# Subsequently, the luciferase signal was measured in a luminometer (InfinitePro coupled to a Connect Stacker, both TECAN). In order to be able to detect receptor antagonism, several assays were also performed in antagonistic mode. […]
# The luminometer data was analysed as follows; the average of the triplicate wells was determined, and the average blank (DMSO) value was subtracted. […] For antagonist- and cytotoxicity experiments, PC20 values were determined instead, which was defined as the concentration where the test compound causes a 20% decrease in the basal signal, which was […]
# curve, the signal induction above background (DMSO) was determined, and the concentration where the compound elicited a 1.5-fold increase above background was used as LEC.
row,LEC AhR,SMILES
1,–,"CCCCN(CC)C(=O)CCC(=O)N(CC)CCCC [EBSA, N,N′‐diethyl‐N,N′‐dibutylsuccindiamide]"
2,–,"CCCCN(C)C(=O)CCC(=O)N(C)CCCC [MBSA, N,N′‐dimethyl‐N,N′‐dibutylsuccindiamide]"
3,–,"CCCCN1CCCC1=O [NBP, N‐Butylpyrrolidinone, reference compound]"
4,−2.0 Log M,"CN1CCCC1=O [NMP, N‐methyl‐2‐pyrrolidone, reference compound]"
5,–,"CCCCN(CCCC)C(=O)CCC(=O)N(CCCC)CCCC [TBSA, N,N,N′,N′‐tetrabutylsuccindiamide]"
